The results in this text go back to ChEMBL document CHEMBL1201862, “PubChem BioAssay data set” (2004).

Holding throughout (experiment): NCI tumour cell line growth inhibition, 48 h
Test [1] has as its system MCF7.
The subject of test [2] is DMS-114.
Test [3] concerns KM-20L2.
Test [4] has as its system M19-MEL.
Test [5] has as its system XF498.
The subject of test [6] is RXF 631.
Test [7] deals with DLD-1.
Test [8] relates to SNB-78.
Test [9] deals with HOP-18.

SMILES strings stand for the structures.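 Where inhibition never reached the appropriate level, the endpoint shown equals the highest concentration tested. Otherwise, values were interpolated linearly from a five-concentration, 48-hour dose response in 96-well plates. GI50 marks 50% less growth.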 Activity calls are given as the source filed them. No stated cut-off is given here; in the data, active = GI50 up to about 1.1 µM and inactive = higher.

For `O=C(O)Cc1ccc(Oc2nc3ccccc3nc2C(=O)O)cc1`, the GI50 in test [1] is > 100 µM (inactive).
On the same count and under the same terms, then `O=C1CC(c2ccc(Cl)cc2)C2(C(=O)NC(=S)NC2=O)C(c2ccc(Cl)cc2)C1` (stereo unspecified), with 17.3 µM (inactive).
The same measure, in the same setting: in the case of `CC(=O)OC(=C(C#N)C#N)c1nccnc1C(C)=O` it was > 20 µM (inactive); in that of `CN(C)C1(N(C)C)Oc2c(c(=O)n(C)c(=O)n2C)C(c2ccc(C(F)(F)F)cc2)C1(F)F` (stereo unspecified), > 100 µM (inactive); in that of `CC1=C(C)SC(=C2Sc3c(n(C)c(=O)n(C)c3=O)S2)S1`, > 100 µM (inactive).
The same measure, in the same setting: then `COC(=O)C1=C(OC(=O)c2ccccc2)C(C(=O)OC)[C@@]2(O)[C@@H](C(=O)OC)[C@H](C)C[C@@H]1[C@@H]2C(=O)OC` (stereo partly specified), with 29 µM (inactive).
On to `CC1(C)CC(C)(C)CC(O)(C2(O)CC(C)(C)CC(C)(C)C2)C1`, for which the GI50 in test [2], in [3], in [4] and in test [5] was > 100 µM (inactive) in each case.
Consider `COC1=N[C@H](C(C)C)C(OC)=N[C@H]1Cc1ccc(C[C@@H]2N=C(OC)[C@@H](C(C)C)N=C2OC)s1`, for which the GI50 in test [1] was 20.3 µM (inactive).
On the same count and under the same terms, in the case of `COc1cccc([C@@H]2C/C(=N\NC(=O)C(=O)N[C@@H](C)c3ccccc3)c3cc4c(cc3N2)OCO4)c1` it was 8.32 µM (inactive); in that of `CCn1c(-c2ccc(/N=N/Nc3ccc(-c4n[nH]c(=S)n4CC)cc3)cc2)n[nH]c1=S`, 3.33 µM (inactive).
As to `Cc1cc(C)c(C#N)c(SC(=S)NC(=O)c2ccccc2)n1`, the GI50 in test [1] is > 100 µM (inactive).
The same measure, in the same setting: in the case of `O=C1c2scc(-c3ccc(F)cc3)c2-n2cccc21` it was 21.2 µM (inactive); in that of `CC(=O)c1cc(C)n2c1CS[C@@H]2c1ccccc1`, 35.9 µM (inactive).
Consider `CCCN(CCCC(NC(C)=O)C(=O)NCc1ccccc1)C(=O)NC` (stereo unspecified), for which the GI50 in test [2], in [3], in test [4], in test [6], in test [7] and in [8] was > 100 µM (inactive) in each case.
With `Cc1cc(-c2ccc(Cl)cc2)c(C#N)c(=S)n1C1OC(CO)C(O)C(O)C1O` (stereo unspecified), in test [1], the GI50 is > 100 µM (inactive).
On to `CN(C)CCNC(=O)c1cccc2c(NC(CCCNC(=N)N)C(=O)O)c3ccccc3nc12` (stereo unspecified), for which the GI50 in test [1] was 5.27 µM (inactive).
For `CN(C)c1ccc(/C=C(\NC(=O)c2ccccc2)c2nc3ccc4c(c3[nH]2)C(=O)c2ccccc2C4=O)cc1`, the GI50 is 21.7 µM (inactive) in test [2]; > 100 µM (inactive) in test [3]; > 100 µM (inactive) in [4]; 34.7 µM (inactive) in test [6]; 9.48 µM (inactive) in [7]; 75.7 µM (inactive) in test [8].
With `O=C(Nc1ccc(N2C(=O)CSC2c2ccccc2O)cc1)c1ccc(N2C(=O)CSC2c2ccccc2O)cc1` (stereo unspecified), the GI50 in [1] was 46.3 µM (inactive).
On the same count and under the same terms, in the case of `CC(C)C1OC(N)=C(C#N)C1(C#N)C#N` (stereo unspecified) it was 69.7 µM (inactive).
The same measure, in the same setting: in the case of `O=C1NC(N2CCCC(CO)C2)=N/C1=C\c1ccccc1` (stereo unspecified) it was > 100 µM (inactive).
The same measure, in the same setting: then `CSc1nc(-c2ccccc2)[nH]c(=O)n1`, with > 100 µM (inactive).
Consider `c1ccc(C2=NOC3COc4ccccc4OCC23)cc1` (stereo unspecified), for which the GI50 in test [2], in test [3] and in test [8] was > 100 µM (inactive) each time.
Consider `CC1(C)CC(=O)C(CC(C(=O)C(=O)Nc2cc(C(F)(F)F)ccc2Cl)C(=O)c2ccco2)C(=O)C1` (stereo unspecified), for which, in test [1], the GI50 is > 100 µM (inactive).
Still for that read-out and setting: then `Oc1ccc2ccccc2c1-c1c(Nc2ccccc2)ccc2ccccc12`, with 13 µM (inactive); and `O=C(NCCNCCO)N/N=C/c1ccc([N+](=O)[O-])cc1`, with 48.9 µM (inactive).
In the case of `NCC(=O)OCN1C(=O)C2C3C=CC(C2C1=O)C1C2C(=O)N(COC(=O)CN)C(=O)C2C31` (stereo unspecified), the GI50 in [2] is 16.2 µM (inactive); in test [3], 28.6 µM (inactive); in test [9], 25.9 µM (inactive); in test [4], 21 µM (inactive); in test [5], 31.4 µM (inactive); in [7], 25.1 µM (inactive). Further, in test [8], the GI50 was 53.6 µM (inactive).
Regarding `COc1cc(/C=C2/SC(c3ccccc3)N(c3cc(Cl)ccc3Cl)C2=O)cc(OC)c1OC` (stereo unspecified), the GI50 in test [1] was 30.8 µM (inactive).
`O=c1oc2ncccc2n1Cc1ccc([N+](=O)[O-])cc1`: the GI50 in test [1] is > 100 µM (inactive).
Take `COc1ccccc1N1CCN(Cn2c(=O)oc3cccnc32)CC1`: the GI50 in [1] is > 100 µM (inactive).
For `COc1cc(/C=C2/C(=O)N(C(=O)c3ccccc3O)N=C2C)cc(OC)c1OC`, the GI50 in test [1] was 0.753 µM (active); in test [2], 0.682 µM (active); in [3], 45.7 µM (inactive); in test [4], 0.695 µM (active); in test [5] it was 1.9 µM (inactive); in [7], 0.484 µM (active). Besides, the GI50 in test [8] was 0.277 µM (active).
Turning to `C=CCCCC1(C)CCCCNC1=O` (stereo unspecified), the GI50 in test [1] was > 10 µM (inactive).
`COc1ccc(/C=N/n2c(Cc3ccccc3)n[nH]c2=O)c(OC)c1`: in [1], the GI50 is > 100 µM (inactive).
Take `O=S(=O)(c1ccccc1)C(CN1CCCCC1)S(=O)(=O)c1ccccc1`: the GI50 in test [3], in [4], in [5] and in [7] was > 100 µM (inactive) throughout.
With `Cc1nc2c(n1Cc1ccc(F)cc1)C(=O)c1ccccc1C2=O`, the GI50 was 38.5 µM (inactive) in [3], 3.62 µM (inactive) in [4], 29.9 µM (inactive) in [5] and > 100 µM (inactive) in test [8].
Regarding `COc1ccc(NC(=O)C(C)Oc2ccc(OCC3CCCCC3)cc2)cc1` (stereo unspecified), the GI50 was 46.7 µM (inactive) in test [2]; > 100 µM (inactive) in test [4]; 85.7 µM (inactive) in test [5]; 64 µM (inactive) in test [7]; 50.9 µM (inactive) in test [8].
In the case of `N=C(NCc1ccccc1)N/N=C\c1ccnc2ccccc12`, the GI50 in test [1] is 11.7 µM (inactive).
The same measure, in the same setting: in the case of `NC(=S)NN=C1Cc2ccccc2C1` it was > 100 µM (inactive).
Regarding `NC(=S)N/N=C(/CC(=O)c1ccccc1)C(=O)Nc1ccc(Cl)c(Cl)c1`, the GI50 in test [2] was 71.6 µM (inactive); in test [3], > 100 µM (inactive); in [9], > 100 µM (inactive); in test [4] it was > 100 µM (inactive); in [7] it was 83.6 µM (inactive); in test [8], > 100 µM (inactive).
As to `CC1(C)C2CCC(=O)C1C(OCc1ccccc1)C2` (stereo unspecified), the GI50 in test [1] is > 100 µM (inactive).
The same measure, in the same setting: then `CC(C)(C)OC(=O)NCCCCC1NC(=O)[C@@H]2Cc3c([nH]c4ccccc34)C(c3ccccc3)N2C1=O` (stereo partly specified), with 35.2 µM (inactive).
For the compound `CCOC(=O)/C(=C\NCc1ccc2c(c1)OCO2)c1nc2ccccc2[nH]1`, in [1], the GI50 is 59.8 µM (inactive).
On the same count and under the same terms, in the case of `NC(=O)C[C@H](NC(=O)C1(NC(=O)[C@H](Cc2ccc(CP(=O)(O)O)cc2)NC(=O)C(=O)O)CCCCC1)C(=O)NCCCc1cccc2ccccc12` it was > 10 µM (inactive).
Still for that read-out and setting: then `O=[N+]([O-])c1ccc(Cl)c2c([N+](=O)[O-])cccc12`, with 4.43 µM (inactive).
Regarding `CC1=C(c2cc(C(=O)Nc3cccc(C(F)(F)F)c3)ncn2)Sc2ccccc2N1`, the GI50 in [2], in test [3], in test [9], in test [4], in [5] and in [7] was > 100 µM (inactive) each time.
Take `COC([C@@H](OC(=O)c1ccccc1)[C@H](OC(=O)c1ccccc1)C(O)COC(=O)c1ccccc1)n1cc(C)c(=O)[nH]c1=O` (stereo partly specified): the GI50 in test [1] is 13 µM (inactive).
Turning to `CC1C2=C(O)CC(C)(C)CC2=NC2=C1C(=O)CC(C)(C)C2` (stereo unspecified), in [1], the GI50 is > 100 µM (inactive).
Same read-out and setting: then `Cc1cccc2c(N)c3cccc(C(=O)NCC[N+](C)(C)Cc4ccc([N+](=O)[O-])s4)c3nc12`, with 2.23 µM (inactive); and `O=Cc1ccc(-c2cc(C=O)c(-c3cccs3)[nH]2)s1`, with 19.4 µM (inactive).
The same measure, in the same setting: in the case of `CCOC(=O)CSc1[nH]c2nc(C)nc(Cl)c2c1C#N` it was > 10 µM (inactive).
Consider `CCCCCCCOc1ccc(/C=C\c2cc[n+](CCCCCCCC[n+]3ccc(/C=C\c4ccc(OCCCCCCC)cc4)cc3)cc2)cc1`, for which the GI50 is 21.6 µM (inactive) in test [2]; 29.6 µM (inactive) in test [3]; 15.1 µM (inactive) in test [9]; 21.9 µM (inactive) in test [4]; 21.8 µM (inactive) in test [7]; > 100 µM (inactive) in [8].
Regarding `CC1CC[C@@]2(OC1)O[C@H]1[C@H](O)[C@H]3[C@@H]4CC[C@H]5C[C@@H](OC6OC(CO)C(OC7OC(CO)C(O)C(OC8OCC(O)C(O)C8O)C7OC7OC(CO)C(O)C(O)C7OC7OC(CO)C(O)C(O)C7O)C(O)C6O)[C@H](O)C[C@]5(C)[C@H]4CC[C@]3(C)[C@H]1[C@@H]2C` (stereo partly specified), the GI50 in test [1] is 2.82 µM (inactive).
Same read-out and setting: in the case of `O=C1/C(=C/c2ccccc2S)N=C(c2ccccc2)N1c1nc2ccc(Sc3ccccc3)cc2[nH]1` it was 27 µM (inactive).
The same measure, in the same setting: then `Cc1ccc2c(c1)NC(c1ccc(C(=O)O)cc1)c1cccn1-2` (stereo unspecified), with 25.1 µM (inactive).
As to `O=C(O)[C@@H]1CCCC[C@@H]1C(=O)N(C1CCCCC1)C1CCCCC1`, the GI50 in test [2], in test [3], in test [4], in test [6], in [7] and in test [8] was > 100 µM (inactive) in each case.
Take `CC1(C)S[C@@H]2[C@H](N3C(=O)c4ccccc4C3=O)CN2[C@H]1NC(=O)N[C@@H]1N2C[C@@H](N3C(=O)c4ccccc4C3=O)[C@H]2SC1(C)C`: the GI50 in test [1] is > 100 µM (inactive).
In the case of `CCc1oc2ccc(OC)c3c2c1C=CC=C3`, the GI50 in [4], in test [7] and in [8] was > 100 µM (inactive) throughout.
As for `Oc1nc(-c2cccc(F)c2)nc2ccccc12`, the GI50 in test [1] is 87.1 µM (inactive).
As for `CCC1(O)C(=O)OCc2c1cc1n(c2=O)Cc2cc3cc(OC)c(OC)cc3nc2-1` (stereo unspecified), the GI50 was 12.8 µM (inactive) in test [2], > 100 µM (inactive) in test [3], 56.8 µM (inactive) in test [9] and 34.3 µM (inactive) in test [5].
In the case of `COC1OC(=O)C(OC)C(OC)C1OC` (stereo unspecified), the GI50 in [1] was > 100 µM (inactive).
